Reference: PubChem BioAssay AID248 (DTP/NCI, 2004)
“And” between values parts separate entries of the source, which are not always exact repeats. Identical values can stand only once. Inconclusive results and toxic doses are left out. No stated cut-off is given here; in the data, active means T/C of 150% or more; inactive means T/C below 125%.

Test system: L1210 leukemia ip in BDF1 mice, survival T/C
Test: NCI In Vivo Anticancer Drug Screen. Data for tumor model L1210 Leukemia (intraperitoneal) in B6D2F1 (BDF1) mice
Conditions: endpoint: mean survival time, higher = longer survival
How it was run: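 In this screen, tumor-bearing mice given compound are compared to those given vehicle, and their survival values are reported as a treated-to-control quotient.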

[1] = dose: 50.0 mg/kg/injection, schedule: Q01DX009 (ip), vehicle: saline with Tween-80
[2] = dose: 100.0 mg/kg/injection, schedule: Q01DX009 (ip), vehicle: saline with Tween-80
[3] = dose: 200.0 mg/kg/injection, schedule: Q01DX009 (ip), vehicle: saline with Tween-80
[4] = dose: 100.0 mg/kg/injection, schedule: Q04DX003 (ip), vehicle: saline
[5] = dose: 200.0 mg/kg/injection, schedule: Q04DX003 (ip), vehicle: saline
[6] = dose: 100.0 mg/kg/injection, schedule: Q01DX009 (ip), vehicle: Klucel (hydroxypropylcellulose) (HPC)
[7] = dose: 200.0 mg/kg/injection, schedule: Q01DX009 (ip), vehicle: Klucel (hydroxypropylcellulose) (HPC)
[8] = dose: 400.0 mg/kg/injection, schedule: Q01DX009 (ip), vehicle: Klucel (hydroxypropylcellulose) (HPC)
[9] = dose: 100.0 mg/kg/injection, schedule: Q01DX001 (ip), vehicle: Klucel (hydroxypropylcellulose) (HPC)
[10] = dose: 200.0 mg/kg/injection, schedule: Q01DX001 (ip), vehicle: Klucel (hydroxypropylcellulose) (HPC)
[11] = dose: 100.0 mg/kg/injection, schedule: Q04DX003 (ip), vehicle: saline with Tween-80
[12] = dose: 200.0 mg/kg/injection, schedule: Q04DX003 (ip), vehicle: saline with Tween-80
[13] = dose: 400.0 mg/kg/injection, schedule: Q04DX003 (ip), vehicle: saline with Tween-80
[14] = dose: 400.0 mg/kg/injection, schedule: Q01DX009 (ip), vehicle: saline with Tween-80
[15] = dose: 100.0 mg/kg/injection, schedule: Q04DX003 (ip), vehicle: Klucel (hydroxypropylcellulose) (HPC)
[16] = dose: 200.0 mg/kg/injection, schedule: Q04DX003 (ip), vehicle: Klucel (hydroxypropylcellulose) (HPC)
[17] = dose: 400.0 mg/kg/injection, schedule: Q04DX003 (ip), vehicle: Klucel (hydroxypropylcellulose) (HPC)
[18] = dose: 100.0 mg/kg/injection, schedule: Q01DX001 (ip), vehicle: carboxymethylcellulose (CMC)
[19] = dose: 200.0 mg/kg/injection, schedule: Q01DX001 (ip), vehicle: carboxymethylcellulose (CMC)
[20] = dose: 400.0 mg/kg/injection, schedule: Q01DX001 (ip), vehicle: carboxymethylcellulose (CMC)

Measured: T/C

C/C=C/C(=O)OCC (tested in a mixture with another compound)
inactive: [1] 97 % of control | [2] 93 % of control | [3] 93 % of control

C=CCNC(=S)NN
inactive: dose: 6.25 mg/kg/injection, schedule: Q04DX003 (ip), vehicle: Klucel (hydroxypropylcellulose) (HPC) 115 % of control | dose: 12.5 mg/kg/injection, schedule: Q04DX003 (ip), vehicle: Klucel (hydroxypropylcellulose) (HPC) 95 % of control

CCCC[S][Pb]([CH2]C)([CH2]C)[CH2]C
inactive: dose: 1.56 mg/kg/injection, schedule: Q01DX009 (sc), vehicle: olive oil, sesame oil, peanut oil 103 % of control | dose: 3.12 mg/kg/injection, schedule: Q01DX009 (sc), vehicle: olive oil, sesame oil, peanut oil 99 % of control | dose: 6.25 mg/kg/injection, schedule: Q01DX009 (sc), vehicle: olive oil, sesame oil, peanut oil 96 % of control and 100 % of control | dose: 12.5 mg/kg/injection, schedule: Q04DX002 (ip), vehicle: saline with Tween-80 111 % of control | dose: 25.0 mg/kg/injection, schedule: Q04DX002 (ip), vehicle: saline with Tween-80 96 % of control

c1ccc(C[N+]23CC[N+](Cc4ccccc4)(CC2)CC3)cc1
inactive: dose: 50.0 mg/kg/injection, schedule: Q01DX009 (ip), vehicle: saline 107 % of control | dose: 100.0 mg/kg/injection, schedule: Q01DX009 (ip), vehicle: saline 111 % of control | [4] 97 % of control | dose: 200.0 mg/kg/injection, schedule: Q01DX009 (ip), vehicle: saline 114 % of control | [5] 100 % of control

CN1CCCC(C)(CN2c3ccccc3Sc3ccccc32)C1 (centres undefined)
inactive: [4] 111 % of control | [5] 105 % of control

C=CCCn1cc(C)c(=O)[nH]c1=O
inactive: [6] 103 % of control | [7] 116 % of control | [8] 100 % of control

Cc1ccc(N2C(=O)CNC2=O)cc1
inactive: [9] 101 % of control | [10] 101 % of control | dose: 400.0 mg/kg/injection, schedule: Q01DX001 (ip), vehicle: Klucel (hydroxypropylcellulose) (HPC) 96 % of control

CCCCCCCCCCCc1cc(=O)n(-c2cc(Cl)ccc2Cl)n1C
inactive: [11] 98 % of control

NC(=O)OCCCCCCOC(N)=O
inactive: [11] 90 % of control | [12] 90 % of control | [13] 87 % of control

O=C(Nc1cccc2c1N(C(=O)c1ccco1)CCC2)c1ccco1
inactive: [2] 98 % of control | [11] 94 % of control | [3] 101 % of control | [12] 96 % of control | [14] 95 % of control | [13] 96 % of control

Nc1c(Cl)ccc2c(Cl)ccnc12
inactive: dose: 100.0 mg/kg/injection, schedule: Q01DX001 (ip), vehicle: saline 111 % of control | dose: 150.0 mg/kg/injection, schedule: Q04DX003 (ip), vehicle: other 89 % of control | dose: 200.0 mg/kg/injection, schedule: Q01DX001 (ip), vehicle: saline 98 % of control | dose: 300.0 mg/kg/injection, schedule: Q04DX003 (ip), vehicle: other 97 % of control | dose: 400.0 mg/kg/injection, schedule: Q01DX001 (ip), vehicle: saline 104 % of control

Cc1cc2oc(=O)c(Cl)c(NCCO)c2c(C)c1Cl
inactive: [2] 104 % of control | [3] 96 % of control | [14] 95 % of control

COc1ccc(C2=CCCCC2)cc1
inactive: [2] 97 % of control | [11] 105 % of control | [3] 91 % of control | [12] 110 % of control | [14] 94 % of control | [13] 103 % of control

OC1CC2CCC(C1)N2 (centres undefined)
inactive: dose: 75.0 mg/kg/injection, schedule: Q01DX001 (ip), vehicle: saline 95 % of control | dose: 150.0 mg/kg/injection, schedule: Q01DX001 (ip), vehicle: saline 91 % of control

COc1ccc2[nH]c3cc(Cl)ccc3c(=O)c2c1
inactive: [2] 91 % of control | [3] 88 % of control | [14] 86 % of control

COc1ccc(-n2c(=O)c(N=Nc3ccc(Cl)cc3)c(O)n(-c3ccccc3OC)c2=S)cc1
inactive: dose: 50.0 mg/kg/injection, schedule: Q01DX001 (ip), vehicle: Klucel (hydroxypropylcellulose) (HPC) 110 % of control | [9] 102 % of control | [10] 100 % of control

OC1(C2(O)CCCCC2)CCCCC1
inactive: dose: 100.0 mg/kg/injection, schedule: Q04DX002 (ip), vehicle: gum acacia 101 % of control | dose: 200.0 mg/kg/injection, schedule: Q04DX002 (ip), vehicle: gum acacia 104 % of control | dose: 400.0 mg/kg/injection, schedule: Q04DX002 (ip), vehicle: gum acacia 96 % of control

CCC(=O)c1ccc2ccccc2c1
inactive: [15] 100 % of control | [16] 104 % of control | [17] 100 % of control

O=C(OCC(OC(=O)c1ccccc1)C(OC(=O)c1ccccc1)C(COC(=O)c1ccccc1)OC(=O)c1ccccc1)c1ccccc1 (centres undefined)
inactive: dose: 100.0 mg/kg/injection, schedule: Q04DX002 (ip), vehicle: Klucel (hydroxypropylcellulose) (HPC) 93 % of control | dose: 200.0 mg/kg/injection, schedule: Q04DX002 (ip), vehicle: Klucel (hydroxypropylcellulose) (HPC) 105 % of control | dose: 400.0 mg/kg/injection, schedule: Q04DX002 (ip), vehicle: Klucel (hydroxypropylcellulose) (HPC) 93 % of control

CN1CCC(CN2c3ccccc3Sc3ccccc32)C1 (centres undefined)
inactive: dose: 3.12 mg/kg/injection, schedule: Q01DX009 (ip), vehicle: saline 95 % of control | dose: 6.25 mg/kg/injection, schedule: Q01DX009 (ip), vehicle: saline 107 % of control | dose: 12.5 mg/kg/injection, schedule: Q01DX009 (ip), vehicle: saline 101 % of control | dose: 25.0 mg/kg/injection, schedule: Q01DX009 (ip), vehicle: saline 101 % of control

COc1ccc(N)cc1
inactive: dose: 100.0 mg/kg/injection, schedule: Q01DX009 (ip), vehicle: alcohol 121 % of control | dose: 200.0 mg/kg/injection, schedule: Q01DX009 (ip), vehicle: alcohol 88 % of control

C1CCC(N2OC23CCCCC3)CC1 (centres undefined)
inactive: [18] 92 % of control | [19] 90 % of control | [20] 92 % of control

CC(=O)Nc1cc2[nH]c(=O)c3ccccc3c2cc1Cl
inactive: [18] 100 % of control | [19] 105 % of control | [20] 93 % of control

CC(C)(C)OC(=O)NN1Cc2ccccc2Cc2ccccc2C1
inactive: [18] 96 % of control | [19] 91 % of control | [20] 96 % of control

CN(C)/C=N/Nc1ccc([N+](=O)[O-])cc1[N+](=O)[O-]
inactive: [6] 94 % of control | [15] 102 % of control | [7] 94 % of control | [16] 97 % of control | [8] 96 % of control | [17] 97 % of control

O=C(CCCBr)Nc1ccc2ccccc2c1
inactive: [1] 98 % of control | [2] 95 % of control | [3] 95 % of control

CCCN(/C=C/C=C/C=[N+](CCC)CCC)CCC
inactive: dose: 0.03 mg/kg/injection, schedule: Q04DX003 (ip), vehicle: saline 100 % of control | dose: 0.05 mg/kg/injection, schedule: Q04DX003 (ip), vehicle: saline 109 % of control | dose: 0.1 mg/kg/injection, schedule: Q04DX003 (ip), vehicle: saline 98 % of control

CCCP(CCC)N(CC)CC
inactive: [4] 107 % of control | [5] 101 % of control | dose: 400.0 mg/kg/injection, schedule: Q04DX003 (ip), vehicle: saline 104 % of control
